Results taken from US10681909B2, “Herbicidal triazoles” (FMC Corporation, priority 2014, dated 2020).

Assays:
barnyardgrass [1] = assay: Test E postemergence; type: in vivo, Echinochloa crus-galli; conditions: scale 0 to 100
Description: (§1) Seeds of plant species selected from corn (Zea mays), soybean (Glycine max), lambsquarters (Chenopodium album), poinsettia, wild (wild poinsettia, Euphorbia heterophylla), pigweed, palmer (palmer pigweed, Amaranthus palmeri), waterhemp (common waterhemp, Amaranthus rudis), surinam grass (Brachiaria decumbens), crabgrass, large (large crabgrass, Digitaria sanguinalis), crabgrass, Brazilian (Brazilian crabgrass, Digitaria horizontalis), panicum, fall (fall panicum, Panicum dichotomiflorum), foxtail, giant (giant foxtail, Setaria faberii), foxtail, green (green foxtail, Setaria viridis), goosegrass (Eleusine indica), johnsongrass (Sorghum halepense), ragweed (common ragweed, Ambrosia elatior), barnyardgrass (Echinochloa crus-galli), sandbur (southern sandbur, Cenchrus echinatus), arrowleaf sida (Sida rhombifolia), ryegrass, Italian (Italian ryegrass, Lolium multiflorum), dayflower, VA (Virginia dayflower, Commelina virginica), field bindweed (Convolvulus arvensis), cocklebur (common cocklebur, Xanthium strumarium), morningglory (Ipomoea coccinea), nightshade (eastern black nightshade, Solanum ptycanthum), kochia (Kochia scoparia), nutsedge, yellow (yellow nutsedge, Cyperus esculentus), smartweed (ladysthumb smartweed, Polygonum persicaria), velvetleaf (Abutilon theophrasti), horseweed (Conyza canadensis), and beggarticks (hairy beggarticks, Bidens pilosa), were planted into a silt loam soil and treated preemergence with test chemicals formulated in a non-phytotoxic solvent mixture which included a surfactant.
(§2) At the same time, plants from these crop and weed species and also waterhemp_RES1, (ALS & Triazine resistant common waterhemp, Amaranthus rudis), and waterhemp_RES2, (ALS & HPPD resistant common waterhemp, Amaranthus rudis) were planted in pots containing Sunshine Redi-Earth® planting medium comprising spaghnum peat moss, vermiculite, starter nutrients and dolomitic limestone were treated with postemergence applications of test chemicals formulated in the same manner. Plants ranged in height from 2 to 18 cm for postemergence treatments (1- to 4-leaf stage). Treated plants and controls were maintained in a greenhouse for 14 to 21 d, after which time all species were compared to controls and visually evaluated. Plant response ratings, summarized in Table E, are based on a scale of 0 to 100 where 0 is no effect and 100 is complete control. A dash (-) response means no test result.

field bindweed = assay: Test E postemergence; type: in vivo, Convolvulus arvensis; conditions: scale 0 to 100
Description: as §1, §2

corn = assay: Test E postemergence; type: in vivo, Zea mays; conditions: scale 0 to 100
Description: as §1, §2

ryegrass, Italian [2] = assay: Test E postemergence; type: in vivo, Lolium multiflorum; conditions: scale 0 to 100
Description: as §1, §2

goosegrass = assay: Test E preemergence; type: in vivo, Eleusine indica; conditions: scale 0 to 100
Description: as §1, §2

surinam grass = assay: Test E preemergence; type: in vivo, Brachiaria decumbens; conditions: scale 0 to 100
Description: as §1, §2

foxtail, giant = assay: Test E preemergence; type: in vivo, Setaria faberii; conditions: scale 0 to 100
Description: as §1, §2

beggarticks = assay: Test E preemergence; type: in vivo, Bidens pilosa; conditions: scale 0 to 100
Description: as §1, §2

foxtail, green = assay: Test E preemergence; type: in vivo, Setaria viridis; conditions: scale 0 to 100
Description: as §1, §2

barnyardgrass [3] = assay: Test E preemergence; type: in vivo, Echinochloa crus-galli; conditions: scale 0 to 100
Description: as §1, §2

morningglory = assay: Test E preemergence; type: in vivo, Ipomoea coccinea; conditions: scale 0 to 100
Description: as §1, §2

ryegrass, Italian [4] = assay: Test E preemergence; type: in vivo, Lolium multiflorum; conditions: scale 0 to 100
Description: as §1, §2

soybean = assay: Test E preemergence; type: in vivo, Glycine max; conditions: scale 0 to 100
Description: as §1, §2

lambsquarters = assay: Test E preemergence; type: in vivo, Chenopodium album; conditions: scale 0 to 100
Description: as §1, §2

panicum, fall = assay: Test E preemergence; type: in vivo, Panicum dichotomiflorum; conditions: scale 0 to 100
Description: as §1, §2

nightshade = assay: Test E preemergence; type: in vivo, Solanum ptycanthum; conditions: scale 0 to 100
Description: as §1, §2

velvetleaf = assay: Test E preemergence; type: in vivo, Abutilon theophrasti; conditions: scale 0 to 100
Description: as §1, §2

crabgrass, Brazilian = assay: Test E preemergence; type: in vivo, Digitaria horizontalis; conditions: Brazil, scale 0 to 100
Description: as §1, §2

sandbur = assay: Test E preemergence; type: in vivo, Cenchrus echinatus; conditions: scale 0 to 100
Description: as §1, §2

Measured: Plant response rating

COc1nc(-c2ccc(Cl)cc2)nn1Cc1ccnc(C(F)(F)F)c1 [Compound 28]
20: barnyardgrass [1]; 31 g ai/ha | corn; 62 g ai/ha | corn; 125 g ai/ha | ryegrass, Italian [2]; 62 g ai/ha
10: ryegrass, Italian [2]; 31 g ai/ha
80: field bindweed; 125 g ai/ha | field bindweed; 250 g ai/ha
40: barnyardgrass [1]; 125 g ai/ha | barnyardgrass [1]; 250 g ai/ha
50: field bindweed; 31 g ai/ha
25: barnyardgrass [1]; 62 g ai/ha | ryegrass, Italian [2]; 125 g ai/ha
75: field bindweed; 62 g ai/ha
15: corn; 31 g ai/ha
30: corn; 250 g ai/ha | ryegrass, Italian [2]; 250 g ai/ha

Fc1ccc(-c2nc(OCC(F)(F)F)n(Cc3ccnc(C(F)(F)F)c3)n2)cc1 [Compound 30]
25: morningglory; 31 g ai/ha | ryegrass, Italian [2]; 31 g ai/ha | ryegrass, Italian [2]; 62 g ai/ha
65: morningglory; 250 g ai/ha | velvetleaf; 62 g ai/ha | sandbur; 62 g ai/ha
40: ryegrass, Italian [4]; 62 g ai/ha | ryegrass, Italian [2]; 125 g ai/ha
50: surinam grass; 125 g ai/ha | beggarticks; 250 g ai/ha | barnyardgrass [1]; 62 g ai/ha | velvetleaf; 31 g ai/ha | ryegrass, Italian [2]; 250 g ai/ha
30: barnyardgrass [1]; 31 g ai/ha | ryegrass, Italian [4]; 31 g ai/ha | soybean; 250 g ai/ha | corn; 250 g ai/ha
20: surinam grass; 62 g ai/ha | beggarticks; 125 g ai/ha | barnyardgrass [3]; 31 g ai/ha | nightshade; 31 g ai/ha | corn; 62 g ai/ha | corn; 125 g ai/ha
95: foxtail, giant; 31 g ai/ha | foxtail, green; 31 g ai/ha | barnyardgrass [3]; 250 g ai/ha | sandbur; 250 g ai/ha
35: sandbur; 31 g ai/ha
75: barnyardgrass [3]; 125 g ai/ha | ryegrass, Italian [4]; 125 g ai/ha | field bindweed; 125 g ai/ha | velvetleaf; 125 g ai/ha
98: foxtail, giant; 62 g ai/ha | foxtail, giant; 125 g ai/ha | lambsquarters; 62 g ai/ha | panicum, fall; 62 g ai/ha | nightshade; 250 g ai/ha
80: nightshade; 62 g ai/ha
10: beggarticks; 62 g ai/ha | corn; 31 g ai/ha
90: barnyardgrass [1]; 125 g ai/ha | lambsquarters; 31 g ai/ha | nightshade; 125 g ai/ha | velvetleaf; 250 g ai/ha | crabgrass, Brazilian; 31 g ai/ha | sandbur; 125 g ai/ha
0: beggarticks; 31 g ai/ha | soybean; 31 g ai/ha | soybean; 62 g ai/ha | soybean; 125 g ai/ha
15: surinam grass; 31 g ai/ha | morningglory; 62 g ai/ha | morningglory; 125 g ai/ha
100: goosegrass; 62 g ai/ha | goosegrass; 125 g ai/ha | goosegrass; 250 g ai/ha | foxtail, giant; 250 g ai/ha | foxtail, green; 62 g ai/ha | foxtail, green; 125 g ai/ha | foxtail, green; 250 g ai/ha | barnyardgrass [1]; 250 g ai/ha | ryegrass, Italian [4]; 250 g ai/ha | lambsquarters; 125 g ai/ha | lambsquarters; 250 g ai/ha | panicum, fall; 31 g ai/ha | panicum, fall; 125 g ai/ha | panicum, fall; 250 g ai/ha | crabgrass, Brazilian; 62 g ai/ha | crabgrass, Brazilian; 125 g ai/ha | crabgrass, Brazilian; 250 g ai/ha
70: goosegrass; 31 g ai/ha | surinam grass; 250 g ai/ha | barnyardgrass [3]; 62 g ai/ha | field bindweed; 31 g ai/ha | field bindweed; 62 g ai/ha | field bindweed; 250 g ai/ha
